The values below come from patent publication US12180226B2, “Spirotricycle RIPK1 inhibitors and methods of uses thereof” (Merck Sharp & Dohme LLC, priority 2021, dated 2024).

Counter-ions that a name gives are not always drawn.

The target in this experiment is RIPK1 (recombinant GST-RIPK1 kinase domain, residues 1-327) (Homo sapiens (Human), UniProt Q13546). The experiment can be described thus: RIPK1-ADP-Glo Enzymatic Assay. Type of experiment: biochemical. The following applies: ADP-Glo; 25 nM GST-RIPK1, 300 μM ATP; assay lower limit ~25 nM; read-out: RIPK1 V0 Ec50. The procedure, abridged: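 GST-tagged kinase domain (residues 1-327, Sf21-expressed), 25 nM, pre-incubated 30 min with compound at ambient temperature, then reacted 150 min with 300 μM ATP and 3 μM dephosphorylated MBP in HEPES pH 7.3 buffer. ADP measured by ADP-Glo luminescence; EC50 from ten-point titration (top 100000 nM), four-parameter fit.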
RIPK1 (recombinant GST-RIPK1 kinase domain, residues 1-327), sequence (Q13546 1-327): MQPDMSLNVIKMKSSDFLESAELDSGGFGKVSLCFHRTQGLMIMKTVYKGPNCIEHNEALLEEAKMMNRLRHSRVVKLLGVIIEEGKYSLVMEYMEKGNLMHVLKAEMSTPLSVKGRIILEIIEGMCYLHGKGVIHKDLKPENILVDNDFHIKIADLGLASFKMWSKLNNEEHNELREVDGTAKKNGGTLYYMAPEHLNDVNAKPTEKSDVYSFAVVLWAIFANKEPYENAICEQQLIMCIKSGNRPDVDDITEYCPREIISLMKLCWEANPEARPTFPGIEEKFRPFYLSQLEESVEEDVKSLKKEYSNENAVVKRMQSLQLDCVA

Regarding `Cc1nccnc1C(=O)N1CCC2(CC1)O[C@@H]1CC[C@@H](c3cc(F)cc(F)c3)N1C2=O` [Example 6.2, (5′S,7a′R)-5′-(3,5-difluorophenyl)-1-(3-methylpyrazine-2-carbonyl)tetrahydro-3′H-spiro[piperidine-4,2′-pyrrolo[2,1-b] [1,3]oxazol]-3′-one], the EC50 turned out to be 493 nM.

On to `O=C1N2[C@@H](CC[C@H]2c2cccc(F)c2)OC12CCN(c1cc(F)ccn1)CC2` [Example 4.126, (5′S,7a′R)-5′-(3-fluorophenyl)-1-(4-fluoropyridin-2-yl)tetrahydro-3′H-spiro[piperidine-4,2′-pyrrolo[2,1-b] [1,3]oxazol]-3′-one], for which the 50% effective concentration (EC50) stood at 46.7 nM.

In the case of `O=C(c1ccc(O)cc1F)N1CCC2(CC1)O[C@@H]1CC[C@@H](c3cc(F)cc(F)c3)N1C2=O` [Example 5.55, (5′S,7a′R)-5′-(3,5-difluoro-phenyl)-1-(2-fluoro-4-hydroxybenzoyl)tetrahydro-3′H-spiro[piperidine-4,2′-pyrrolo[2,1-b]oxazol]-3'-one], the EC50 worked out at 26.2 nM.

Consider `O=C(c1cc(Cl)ccc1F)N1CCC2(CC1)O[C@@H]1CC[C@@H](c3ccccc3F)N1C2=O` [Example 1.14, (5′S,7a′R)-1-(5-chloro-2-fluorobenzoyl)-5′-(2-fluorophenyl)tetrahydro-3′H-spiro[piperidine-4,2′-pyrrolo[2,1-b]oxazol]-3′-one], for which the EC50 is < 25 nM.

Consider `N#Cc1ccc(N2CCC3(CC2)O[C@@H]2CC[C@@H](c4cc(F)cc(F)c4)N2C3=O)n2ncnc12` [Example 14.2, 5-((5′S,7a′R)-5′-(3,5-difluorophenyl)-3′-oxotetrahydro-3′H-spiro[piperidine-4,2′-pyrrolo[2,1-b]oxazol]-1-yl)-[1,2,4]triazolo[1,5-a]pyridine-8-carbonitrile, TFA salt], for which the concentration for a half-maximal effect (EC50) was < 25 nM.

With `O=C(c1ccccc1F)N1CCC2(CC1)O[C@@H]1CC[C@@H](c3cccc(F)c3)N1C2=O` [Example 1.7, (5′S,7a′R)-1-(2-fluorobenzene-1-carbonyl)-5′-(3-fluorophenyl)tetrahydro-3′H-spiro[piperidine-4,2′-pyrrolo[2,1-b] [1,3]oxazol]-3′-one], the EC50 was < 25 nM.

Take `Cc1ccnc(C(=O)N2CCC3(CC2)O[C@@H]2CC[C@@H](c4cc(F)cc(F)c4)N2C3=O)c1` [Example 6.102, (5′S,7a′R)-5′-(3,5-difluorophenyl)-1-(4-methylpyridine-2-carbonyl)tetrahydro-3′H-spiro[piperidine-4,2′-pyrrolo[2,1-b] [1,3]oxazol]-3′-one]: the EC50 amounted to 48.6 nM.

Take `O=C1N2[C@@H](CC[C@H]2c2ccccc2)OC12CCN(c1ccc(Br)n3ncnc13)CC2` [Example 4.216, (5′S,7a′R)-1-(5-bromo [1,2,4]triazolo[1,5-a]pyridin-8-yl)-5′-phenyltetrahydro-3′H-spiro[piperidine-4,2′-pyrrolo[2,1-b] [1,3]oxazol]-3′-one]: the EC50 was < 25 nM.

With `O=C(c1cccc(F)c1)N1CCC2(CC1)O[C@@H]1CC[C@@H](c3cccc(F)c3)N1C2=O` [Example 6.116, (5′S,7a′R)-1-(3-fluoro-benzene-1-carbonyl)-5′-(3-fluorophenyl)-tetrahydro-3′H-spiro [piperidine-4,2′-pyrrolo[2,1-b][1,3]oxazol]-3′-one], the EC50 is < 25 nM.

Consider `Cc1nc(N2CCC3(CC2)O[C@@H]2CC[C@@H](c4cc(F)cc(F)c4)N2C3=O)ccc1C#N` [Example 4.42, 6-[(5′S,7a′R)-5′-(3,5-difluorophenyl)-3′-oxotetrahydro-1H,3′H-spiro[piperidine-4,2′-pyrrolo[2,1-b] [1,3]oxazol]-1-yl]-2-methylpyridine-3-carbonitrile], for which the EC50 was < 25 nM.

Take `O=C1N2[C@@H](CC[C@H]2c2cc(F)cc(F)c2)OC12CCN(c1cc(-c3ccccc3)ncn1)CC2` [Example 4.13, (5′S,7a′R)-5′-(3,5-difluorophenyl)-1-(6-phenylpyrimidin-4-yl)tetrahydro-3′H-spiro[piperidine-4,2′-pyrrolo[2,1-b] [1,3]oxazol]-3′-one]: the EC50 is < 25 nM.

As for `O=C1N2[C@@H](CC[C@H]2c2cc(F)cc(F)c2)OC12CCN(c1ccc(Cl)c3nccn13)CC2` [Example 13.16, (5′S,7a′R)-1-(8-chloroimidazo[1,2-a]pyridin-5-yl)-5′-(3,5-difluorophenyl)tetrahydro-3′H-spiro[piperidine-4,2′-pyrrolo[2,1-b]oxazol]-3′-one, TFA salt], the half-maximal effective concentration (EC50) worked out at 32 nM.

Turning to `O=C(c1cccc(O)c1)N1CCC2(CC1)O[C@@H]1CC[C@@H](c3cc(F)cc(F)c3)N1C2=O` [Example 5.63, (5′S,7a′R)-5′-(3,5-difluoro-phenyl)-1-(3-hydroxy-benzoyl)tetrahydro-3′H-spiro[piperidine-4,2′-pyrrolo[2,1-b]oxazol]-3′-one], the EC50 was < 25 nM.

`N#Cc1cnc(N2CCC3(CC2)O[C@@H]2CC[C@@H](c4ccccc4)N2C3=O)n2ncnc12` [Example 4.241, 5-[(5′S,7a′R)-3′-oxo-5′-phenyltetrahydro-1H,3′H-spiro[piperidine-4,2′-pyrrolo[2,1-b] [1,3]oxazol]-1-yl][1,2,4]triazolo[1,5-c] pyrimidine-8-carbonitrile]: the EC50 is < 25 nM.

`O=C1N2[C@@H](CC[C@H]2c2ccccc2F)OC12CN(S(=O)(=O)c1ccc(F)cc1)C2` [Example 8.7, (5′S,7a′R)-5′-(2-fluorophenyl)-1-((4-fluorophenyl)sulfonyl) tetrahydro-3′H-spiro[azetidine-3,2′-pyrrolo[2,1-b]oxazol]-3′-one]: the EC50 amounted to 345 nM.

With `Cc1ncccc1C(=O)N1CCC2(CC1)O[C@@H]1CC[C@@H](c3cc(F)cc(F)c3)N1C2=O` [Example 6.52, (5′S,7a′R)-5′-(3,5-difluorophenyl)-1-(2-methylpyridine-3-carbonyl)tetrahydro-3′H-spiro[piperidine-4,2′-pyrrolo[2,1-b] [1,3]oxazol]-3′-one], the EC50 turned out to be 528 nM.

With `O=C1N2[C@@H](CC[C@H]2c2cc(F)cc(F)c2)OC12CCN(c1cccc3ccnn13)CC2` [Example 15.2, (5′S,7a′R)-5′-(3,5-difluorophenyl)-1-(pyrazolo[1,5-a]pyridin-7-yl)tetrahydro-3′H-spiro[piperidine-4,2′-pyrrolo[2,1-b]oxazol]-3′-one, TFA], the EC50 is < 25 nM.

As for `Cc1ccc([C@@H]2CC[C@H]3OC4(CCN(C(=O)c5ccccc5)CC4)C(=O)N32)c(F)c1` [Example 17.11, (5′S,7a′R)-1-benzoyl-5′-(2-fluoro-4-methylphenyl)tetrahydro-3′H-spiro[piperidine-4,2′-pyrrolo[2,1-b]oxazol]-3′-one], the concentration for a half-maximal effect (EC50) was < 25 nM.

`COc1cccc(C(=O)N2CCC3(CC2)O[C@@H]2CC[C@@H](c4cc(F)cc(F)c4)N2C3=O)c1` [Example 6.10, (5′S,7a′R)-5′-(3,5-difluorophenyl)-1-(3-methoxybenzene-1-carbonyl)tetrahydro-3′H-spiro[piperidine-4,2′-pyrrolo[2,1-b] [1,3]oxazol]-3′-one]: the concentration for a half-maximal effect (EC50) was < 25 nM.

Turning to `Cc1cc(C(=O)N2CCC3(CC2)O[C@@H]2CC[C@@H](c4cc(F)cc(F)c4)N2C3=O)ccc1C#N` [Example 5.18, 4-((5′S,7a′R)-5′-(3,5-difluorophenyl)-3′-oxo-tetrahydro-3′H-spiro [piperidine-4,2′-pyrrolo-[2,1-b]oxazole]-1-carbon-yl)-2-methylbenzonitrile], the EC50 came to 138 nM.

Consider `Cc1cnc([C@@H]2CC[C@H]3OC4(CCN(C(=O)c5ccccc5)CC4)C(=O)N32)cn1` [Example 6.143, (5′S,7a′R)-1-(benzene-carbonyl)-5′-(5-meth-ylpyrazin-2-yl)tetra-hydro-3′H-spiro [piperidine-4,2′-pyrrolo[2,1-b][1,3]oxazol]-3′-one], for which the EC50 was found to be 56.8 nM.

`CC1CN(C(=O)c2ccccc2)CCC12O[C@@H]1CC[C@@H](c3cc(F)cc(F)c3)N1C2=O` (single isomer, unassigned) [Example 2.5, (3[S or R],4[R or S], 5′S,7a′R)-1-benzoyl-5′-(3,5-difluorophenyl)-3-methyltetrahydro-3′H-spiro[piperidine-4,2′-pyrrolo[2,1-b]oxazol]-3′-one]: the EC50 amounted to 40.7 nM.

Take `COc1cc(N2CCC3(CC2)O[C@@H]2CC[C@@H](c4ccccc4)N2C3=O)ncn1` [Example 4.39, (5′S,7a′R)-1-(6-methoxypyrimidin-4-yl)-5′-phenyltetrahydro-3′H-spiro[piperidine-4,2′-pyrrolo[2,1-b] [1,3]oxazol]-3′-one]: the EC50 came to 22.3 nM.

Turning to `O=C(c1ccoc1)N1CCC2(CC1)O[C@@H]1CC[C@@H](c3ccccc3)N1C2=O` [Example 6.145, (5′S,7a′R)-1-(furan-3-carbonyl)-5′-phenyl-tetrahydro-3′H-spiro [piperidine-4,2′-pyrrolo[2,1-b][1,3]oxazol]-3′-one], the EC50 is < 25 nM.

As to `CC1CN(c2cccc3ncnn23)CCC12O[C@@H]1CC[C@@H](c3ccccc3)N1C2=O` (stereo partly drawn) [Example 4.244, (4R,5′S,7a′R)-3-methyl-5′-phenyl-1-([1,2,4]triazolo[1,5-a]pyridin-5-yl)tetrahydro-3′H-spiro[piperidine-4,2′-pyrrolo[2,1-b] [1,3]oxazol]-3′-one], the EC50 was < 25 nM.

`N#Cc1cc([C@@H]2CC[C@H]3OC4(CCN(c5ccnc6c(F)cnn56)CC4)C(=O)N32)ccc1F` [Example 20.6, 2-fluoro-5-[(5′S,7a′R)-1-(3-fluoropyrazolo[1,5-a]pyrimidin-7-yl)-3′-oxotetrahydro-3′H-spiro[piperidine-4,2′-pyrrolo[2,1-b][1,3]oxazol]-5′-yl]benzonitrile]: the EC50 is < 25 nM.

In the case of `O=C(c1nsnc1Cl)N1CCC2(CC1)O[C@@H]1CC[C@@H](c3cc(F)cc(F)c3)N1C2=O` [Example 6.19, (5′S,7a′R)-1-(4-chloro-1,2,5-thiadi-azole-3-carbonyl)-5′-(3,5-difluorophenyl)-tetrahydro-3′H-spiro [piperidine-4,2′-pyrrolo[2,1-b][1,3]oxazol]-3′-one], the concentration giving a half-maximal response (EC50) is < 25 nM.
